Test results reported in paper PMC7394005, “Assessing the Selectivity of FXR, LXRs, CAR, and RORγ Pharmaceutical Ligands With Reporter Cell Lines” (Frontiers in Pharmacology, 2020).

Each molecule was assayed on HG5LN parental cell line (assay: Non-specific modulation of luciferase expression in HG5LN parental cell line). Conditions: HG5LN parental cells lacking Gal4-NRs; Figure S2.
Type: cell-based, human
Experimental: (§1) HG5LN and HG5LN PXR cells have already been described ([Delfosse et al., 2015]). To characterize the specificity of chemicals for human FXR, LXRα, LXRβ, CAR and RORγ, we established in a similar manner HG5LN FXR, LXRα, LXRβ, CAR WT, CAR (APYLT) and RORγ reporter cell lines. HG5LN are HeLa cells stably transfected by the (GAL4RE)5-βGlob-Luc-SVNeo plasmid ([Seimandi et al., 2005]). These cells were stably transfected by pSG5-GAL4 (DBD)-NRs (LBD)-puromycin plasmid and selected in presence of 0.5 µg/ml puromycin. […] From each HG5LN NR cells, 5 to 10 clones were chosen for their ligand inducibility of luciferase expression. We noted that the basal activity in absence of ligand strongly differed among NRs. FXR, LXRs, and CAR APYLT had the lowest basal activities, whereas CAR and RORγ had the highest. The most inducible clones were expanded and rechecked for inducibility and aliquots were frozen at different passages. One clone per receptor was maintained in culture and used for ligand screening. HG5LN cells were cultured in Dulbecco’s modified Eagle’s medium (DMEM): Nutrient Mixture F-12 (DMEM/F-12) containing phenol red and 1 g/l glucose and supplemented with 5% fetal bovine serum, 100 units/ml of penicillin, 100 µg/ml of streptomycin and 1 mg/ml geneticin, in 5% CO2 humidified atmosphere at 37°C. Stably transfected cell lines derived from HG5LN cells were cultured in the same culture medium supplemented with 0.5 µg/ml puromycin.
(§2) Individual reporter cell lines were seeded at a density of 40,000 cells per well in 96-well white opaque tissue culture plates (Greiner CellStar) in Dulbecco’s Modified Eagle Medium: Nutrient Mixture F-12 (DMEM/F-12) without phenol red and 1 g/l glucose and supplemented with 5% stripped fetal bovine serum, 100 units/ml of penicillin, 100 µg/ml of streptomycin (test medium). Chemicals to be tested were added 24h later, and cells were incubated at 37°C for 16h. Experiments were performed in quadruplicates. At the end of the incubation period, culture medium was replaced with test medium containing 0.3 mM luciferin solution. Luciferase activity was measured for 2s in intact living cells after 10 min stabilization using a Micro Beta Wallac luminometer (PerkinElmer). EC50 values were calculated using GraphPad Prism (GraphPad Software Inc).
To evaluate the FXR, LXRα, LXRβ, PXR, CAR, and RORγ specificity of pharmaceutical chemicals, we established HG5LN reporter cell lines expressing human FXR, LXRα, LXRβ, CAR, CAR (+ APYLT), and RORγ. Then, we tested the agonistic/antagonistic potential of 22 commercially available pharmaceutical compounds ( Figure S1 ) on these cells and in the previously established PXR cell line ([Delfosse et al., 2015]). The 22 chemicals were first tested for non-specific modulation of luciferase expression on the HG5LN parental cell line, which contains the same reporter gene as HG5LN-GAL4-NRs cells, but lacks of Gal4-NRs. […] The basal (in absence of ligand) and the maximal (in presence of NR-specific full agonist) activities of HG5LN and the different HG5LN GAL4-NRs were measured. […] The expression of FXR induced the slight repression of basal transcription, while both LXRs and PXR had no effect, or just slightly activated the basal transcription ( Figure 1 ). Consequently, the baseline activities were normalized as percentage of maximal activity mediated by full agonists, as follows: 6% for FXR, 8% for LXRα, 9% for LXRβ, 19% for PXR ( Table 1 ). On the contrary, the basal activity was increased by the expression of CAR and RORγ. Due to the inherent constitutive activity, we determined this activity equal to 100% as the specific agonists were not able to reveal their transactivation potential alone, but they were able to reverse the inhibition caused by antagonists/reverse agonists. To characterize easily CAR agonists, we used cell line expressing a variant of CAR (CAR + APYLT) with reduced basal ([Auerbach et al., 2003]). […]

Molecule	Toxicity (non-specific decrease of luciferase expression) in HG5LN parental cell line	Nonspecific activation of luciferase expression in HG5LN parental cell line
Clc1ccccc1C(c1ccccc1)(c1ccccc1)n1ccnc1 [Clotrimazole, clotrimazole]	most toxic	–
Fc1ccc(-c2c3cccc(C(F)(F)F)c3nn2Cc2ccc(F)cc2Cl)cc1 [WAY252623]	–	significant nonspecific activation
CC(C)c1onc(-c2c(Cl)cccc2Cl)c1COc1ccc(/C=C/c2cccc(C(=O)O)c2)c(Cl)c1 [GW4064]	–	significant nonspecific activation
Clc1ccc(-c2nc3sccn3c2/C=N/OCc2ccc(Cl)c(Cl)c2)cc1 [CITCO]	–	significant nonspecific activation
COc1cccc(Cn2cc(C(=O)Nc3ccc(C)c(S(=O)(=O)N4CCOCC4)c3)c(-c3ccc(C)cc3)n2)c1 [DY268]	–	significant nonspecific activation
SPA70	most toxic	–
Cc1cc(C)c(S(=O)(=O)N(Cc2ccc(-c3cccc(S(C)(=O)=O)c3)cc2)Cc2ccc(C(F)(F)F)o2)c(C)c1 [GSK2033]	–	significant nonspecific activation

The molecules below were run against T1, human PXR (Homo sapiens, UniProt O75469) (assay: HG5LN PXR reporter cell line, antagonist mode in presence of SR12813). Conditions: read-out: PXR (SR12813 300 nM) IC50; in presence of SR12813 300 nM; NE = No effect.
T1 construct: The GAL4-NR chimeric cell lines provide uniform cellular model differing just in receptor LBDs; expressed in transfected cells; host or cells: HG5LN PXR (HeLa-derived; described in Delfosse et al., 2015)
T1 sequence (O75469 146-433 limits assumed): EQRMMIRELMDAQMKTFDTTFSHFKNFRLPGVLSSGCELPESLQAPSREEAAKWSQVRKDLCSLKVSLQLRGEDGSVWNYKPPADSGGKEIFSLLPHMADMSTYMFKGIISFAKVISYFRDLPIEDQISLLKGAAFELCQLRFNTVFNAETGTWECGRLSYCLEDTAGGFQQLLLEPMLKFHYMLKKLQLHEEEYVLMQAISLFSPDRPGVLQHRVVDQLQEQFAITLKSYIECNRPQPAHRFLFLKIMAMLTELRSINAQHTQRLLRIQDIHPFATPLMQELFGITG
Type: cell-based
Experimental: as §1, with “To” for “HG5LN and HG5LN PXR cells have already been described ([Delfosse et al., 2015]). To”, “HG5LN are HeLa cells stably transfected by the (GAL4RE)5-βGlob-Luc-SVNeo plasmid ([Seimandi et al., 2005]).” left out, “We noted that the basal activity in absence of ligand strongly differed among NRs. FXR, LXRs, and CAR APYLT had the lowest basal activities, whereas CAR and RORγ had the highest.” left out
as §2
Chemicals tested for agonism on FXR, LXRs, CAR (+ APYLT), PXR, and antagonism on CAR and RORγ were tested alone, without addition of any other ligand.
In the transactivation assay, each compound was tested at various concentrations in three independent experiments at least. For each experiment, tests were performed in quadruplicates for each concentration, and data are expressed by means values with standard deviations. Individual agonist dose–response curves, in the absence and presence of antagonist, were fitted using the sigmoid dose-response function of a graphics and statistics software program (GraphPad Prism, version 5.0). EC50 (effective concentration for half-maximal luciferase activity) and IC50 (half-maximal inhibitory concentration) values were calculated from equations used to fit the data in this graphic software. Transactivation data are presented as EC50 and IC50 values for each compound tested. To analyze significances, we compared individual compound treatments with controls using one-way analysis of variance (ANOVA) with the help of GraphPad Prism software.

IC50	Molecule
> 10 µM	Cc1oc2ccccc2c1CNC(=O)NCc1cccs1 [S07662]
> 10 µM	COC(=O)/C=C/c1cccc(N(Cc2ccc(-c3ccc(N(C)C)cc3)cc2)C(=O)C2CCCCC2)c1 [Feraxamine]
> 10 µM	CC(C)c1onc(-c2c(Cl)cccc2Cl)c1COc1ccc(/C=C/c2cccc(C(=O)O)c2)c(Cl)c1 [GW4064]
> 10 µM	COc1cccc(Cn2cc(C(=O)Nc3ccc(C)c(S(=O)(=O)N4CCOCC4)c3)c(-c3ccc(C)cc3)n2)c1 [DY268]
> 10 µM	CC(=O)Nc1nc(C)c(S(=O)(=O)Nc2ccc(C(O)(C(F)(F)F)C(F)(F)F)cc2)s1 [SR1001]

Molecule	IC50
O=C(Nc1ccc(C(O)(C(F)(F)F)C(F)(F)F)cc1)c1ccc(C(F)(F)F)cc1 [SR1078]	> 10 µM
